Assay results as given in ChEMBL document CHEMBL4354827, “Discovery of Novel, Potent, Brain-Permeable, and Orally Efficacious Positive Allosteric Modulator of α7 Nicotinic Acetylcholine Receptor [4-(5-(4-Chlorophenyl)-4-methyl-2-propionylthiophen-3-yl)benzenesulfonamide]: Structure-Activity Relationship and Preclinical Characterization” (J Med Chem, 2020).

Experiments:
Rattus norvegicus [1] = experiment: Memory enhancement effect in time-delay induced Wistar rat model of amnesia assessed as increase in novel object discrimination index at 3 mg/kg, po administered as single dose and measured on day 9 by novel object recognition test (reference value: 0.03); format: functional
[2] = Unbound brain-to-plasma concentration ratio in Wistar rat at 10 mg/kg, po after 4 hrs by LC-MS/MS analysis; format: ADME, organism-based; conditions: read-out: K(p,uu,brain)
[3] = Drug concentration in Wistar rat brain at 10 mg/kg, po after 48 hrs by LC-MS/MS analysis; format: ADME, organism-based; conditions: read-out: Drug uptake
Rattus norvegicus [4] = experiment: Memory enhancement effect in time-delay induced Wistar rat model of amnesia assessed as exploration time for familiar object in retention trial at 0.05 mg/kg, po for 7 days and measured on day 8 by novel object recognition test (reference value: 10.20 sec); format: functional
[5] = Metabolic stability in rat liver microsomes assessed as compound remaining at 1 uM preincubated for 5 mins followed by NADPH addition and measured after 30 mins by LC-MS/MS analysis; format: ADME, Microsome; conditions: read-out: Stability
Rattus norvegicus [6] = experiment: Memory enhancement effect in scopolamine-induced Wistar rat model of amnesia assessed as exploration time for object2 in acquisition trial at 0.15 mg/kg, po for 7 days and measured on day 8 by novel object recognition test (reference value: 15.63 sec); format: functional
[7] = Ratio of AUCt in brain to plasma in Wistar rat at 10 mg/kg, po after 144 hrs by LC-MS/MS analysis; format: ADME, organism-based
Rattus norvegicus [8] = experiment: Improvement in social recognition time delay-induced Sprague-Dawley rat model of amnesia assessed as increase in reduction in social investigation time at 0.05 mg/kg, po for 7 days measured on day 9 (reference value: -0.5%); format: functional; design: scale not given: the % may be the effect or the level left
Rattus norvegicus [9] = experiment: Memory enhancement effect in time-delay induced Wistar rat model of amnesia assessed as increase in exploration time for novel object in retention trial at 1 mg/kg, po administered as single dose and measured on day 9 by novel object recognition test (reference value: 12.06 sec); format: functional
Rattus norvegicus [10] = experiment: Memory enhancement effect in time-delay induced Wistar rat model of amnesia assessed as increase in discrimination index at 0.15 mg/kg, po for 7 days and measured on day 8 by novel object recognition test (reference value: 0.12); format: functional
Rattus norvegicus [11] = experiment: Memory enhancement effect in scopolamine-induced Wistar rat model of amnesia assessed as exploration time for object1 in acquisition trial at 0.15 mg/kg, po administered as single dose and measured on day 8 by novel object recognition test (reference value: 16.11 sec); format: functional
Rattus norvegicus [12] = experiment: Memory enhancement effect in scopolamine-induced Wistar rat model of amnesia assessed as exploration time for object2 in acquisition trial at 0.05 mg/kg, po for 7 days and measured on day 8 by novel object recognition test (reference value: 15.63 sec); format: functional
Rattus norvegicus [13] = experiment: Improvement in social recognition scopolamine-induced Sprague-Dawley rat model of amnesia assessed as reduction in recognition index at 0.05 mg/kg, po for 7 days measured after 24 hrs (reference value: 0.93); format: functional
[14] = Oral bioavailability in Beagle dog at 10 mg/kg after 0.25 to 144 hrs by LC-MS/MS analysis; format: ADME, organism-based, Canis lupus familiaris; conditions: in vivo
Rattus norvegicus [15] = experiment: Memory enhancement effect in scopolamine-induced Wistar rat model of amnesia assessed as exploration time for object2 in acquisition trial at 0.15 mg/kg, po administered as single dose and measured on day 8 by novel object recognition test (reference value: 15.63 sec); format: functional
Rattus norvegicus [16] = experiment: Memory enhancement effect in scopolamine-induced Wistar rat model of amnesia assessed as exploration time for object1 in acquisition trial at 0.5 mg/kg, po for 7 days and measured on day 8 by novel object recognition test (reference value: 16.11 sec); format: functional
Rattus norvegicus [17] = experiment: Memory enhancement effect in time-delay induced Wistar rat model of amnesia assessed as exploration time for object1 in acquisition trial at 0.05 mg/kg, po for 7 days and measured on day 8 by novel object recognition test (reference value: 13.73 sec); format: functional
Rattus norvegicus [18] = experiment: Memory enhancement effect in time-delay induced Wistar rat model of amnesia assessed as exploration time for familiar object in retention trial at 3 mg/kg, po administered as single dose and measured on day 9 by novel object recognition test (reference value: 13.05 sec); format: functional
Rattus norvegicus [19] = experiment: Memory enhancement effect in time-delay induced Wistar rat model of amnesia assessed as exploration time for object2 at 1 mg/kg, po administered as single dose after acquisition trial by novel object recognition test (reference value: 21.07 sec); format: functional
Rattus norvegicus [20] = experiment: Memory enhancement effect in scopolamine-induced Wistar rat model of amnesia assessed as exploration time for novel object in retention trial at 0.05 mg/kg, po for 7 days and measured on day 8 by novel object recognition test (reference value: 12.09 sec); format: functional
Rattus norvegicus [21] = experiment: Memory enhancement effect in time-delay induced Wistar rat model of amnesia assessed as exploration time for novel object in retention trial at 0.5 mg/kg, po for 7 days and measured on day 8 by novel object recognition test (reference value: 15.37 sec); format: functional
[22] = AUCt in Wistar rat brain at 10 mg/kg, po after 1 to 144 hrs by LC-MS/MS analysis; format: ADME, organism-based
[23] = Drug metabolism in mouse liver microsomes assessed as metabolic rate at 1 uM preincubated for 5 mins followed by NADPH addition after 30 mins by LC-MS/MS analysis; format: ADME, Microsome; conditions: 0.5 h
[24] = Tmax in BALB/c mouse at 1 mg/kg, iv after 0.083 to 144 hrs by LC-MS/MS analysis; format: ADME, organism-based; conditions: in vivo
[25] = Protein binding in rat plasma at 5 uM incubated for 16 hrs under shaking condition by LC/MS/MS based rapid equilibrium dialysis method; format: ADME, cell-free; conditions: read-out: PPB (converted)
Rattus norvegicus [26] = experiment: Memory enhancement effect in scopolamine-induced Wistar rat model of amnesia assessed as exploration time for familiar object in retention trial at 0.15 mg/kg, po for 7 days and measured on day 8 by novel object recognition test (reference value: 8.59 sec); format: functional
Rattus norvegicus [27] = experiment: Memory enhancement effect in time-delay induced Wistar rat model of amnesia assessed as exploration time for familiar object in retention trial at 1 mg/kg, po administered as single dose and measured on day 9 by novel object recognition test (reference value: 13.05 sec); format: functional
Rattus norvegicus [28] = experiment: Memory enhancement effect in scopolamine-induced Wistar rat model of amnesia assessed as exploration time for object2 in acquisition trial at 0.05 mg/kg, po administered as single dose and measured on day 8 by novel object recognition test (reference value: 15.63 sec); format: functional
[29] = Drug level in scopolamine-induced Sprague-Dawley rat brain at 0.15 mg/kg, po for 7 days; format: ADME, organism-based; conditions: read-out: Drug uptake
[30] = Drug level in scopolamine-induced Sprague-Dawley rat brain at 0.5 mg/kg, po for 7 days; format: ADME, organism-based; conditions: read-out: Drug uptake
[31] = Drug level in Wistar rat plasma at 0.05 mg/kg, po; format: ADME, organism-based; conditions: in vivo
[32] = AUC (0 to 144 hrs) in Wistar rat at 10 mg/kg, po after 0.25 to 144 hrs by LC-MS/MS analysis; format: ADME, organism-based; design: dose 10 mg/kg, time < 144 hr, route oral; conditions: in vivo
Rattus norvegicus [33] = experiment: Improvement in social recognition scopolamine-induced Sprague-Dawley rat model of amnesia assessed as increase in reduction in social investigation time at 0.50 mg/kg, po for 7 days measured after 24 hrs (Rvb =6.59%); format: functional; design: scale not given: the % may be the effect or the level left

CCC(=O)c1sc(-c2ccc(Cl)cc2)c(C)c1-c1ccc(S(N)(=O)=O)cc1
Activity_index (Rattus norvegicus [1]): 0.48
Kp uu at 4 h [2]: 1.29
concentration at 48 h [3]: 5530 nM
Time (Rattus norvegicus [4]): 7.64 s
remaining at 0.5 h, 1 µM [5]: 94%
Time (Rattus norvegicus [6]): 13.41 s
Kp at 144 h [7]: 9
Activity (Rattus norvegicus [8]): 18.97%
Time (Rattus norvegicus [9]): 25.93 s
Activity_index (Rattus norvegicus [10]): 0.3
Time (Rattus norvegicus [11]): 14.08 s
Time (Rattus norvegicus [12]): 18.31 s
Activity_index (Rattus norvegicus [13]): 0.56
bioavailability [14]: 60%
Time (Rattus norvegicus [15]): 13.41 s
Time (Rattus norvegicus [16]): 13.94 s
Time (Rattus norvegicus [17]): 15.2 s
Time (Rattus norvegicus [18]): 8.92 s
Time (Rattus norvegicus [19]): 25.36 s
Time (Rattus norvegicus [20]): 14.65 s
Time (Rattus norvegicus [21]): 19.64 s
AUC(0-t) [22]: 301 µM·h
Drug metabolism [23]: 0.01 nmol/min/mg
Tmax [24]: 4.8 min
fraction unbound at 16 h, 5 µM [25]: 0.0058
Time (Rattus norvegicus [26]): 4.86 s
Time (Rattus norvegicus [27]): 10.49 s
Time (Rattus norvegicus [28]): 18.31 s
concentration at 168 h [29]: 530 nM
concentration at 168 h [30]: 2130 nM
concentration [31]: 40 nM
AUC(0-t) at 144 h [32]: 201 µM·h
Activity (Rattus norvegicus [33]): 25.35%
